Read-outs that look alike come from different tables or passages of the source.
Legend:
LNA-loaded hepatocytes = test: Metal-induced lipid peroxidation (MDA) in LNA-loaded hepatocytes; format: cell-based, Wistar rats; conditions: Rattus norvegicus, Hepatocyte, LNA-loaded cells, 100 μM, read-out: IC50 of lipid peroxidation inhibition
Excerpt: (§1) Isolation and culture of hepatocytes: Male Wistar rats weighing 180 to 210 g were fed with standard chow and water ad libitum. Hepatocytes were isolated by collagenase perfusion method as described by Wolkoff et al. (J Clin Invest 1987; 79: 1259-1268). Briefly, the liver was perfused with collagenase type IV (Sigma Chemical, St. Louis, Mo., USA) and isolated hepatocytes were suspended in culture medium consisting of Waymouth's 752/1 (Gibco, Grand Island, N.Y., USA) containing 5% heat-inactivated fetal bovine serum, 2.5 mM CaCl2, 5 μg/mL bovine insulin (Sigma), 100 U/mL penicillin and 0.1 mg/mL streptomycin. The isolated cells were further fractionated on Percoll density gradients to obtain a viability higher than 98%, as ascertained by trypan blue. Approximately 1.5×10^6 cells in 3 mL or approximately 5.0×10^6 cells in 10 mL in individual 60- or 100-mm diameter Lux culture dishes were placed in an incubator in an atmosphere of […] at 37° C., and then separately cultured. After a 9 hr incubation, the monolayer of hepatocytes was cultured for an additional 12 hr in the medium containing 1.0 mM α-linolenic acid (LNA)-bovine serum albumin (BSA). Seventy percent or more of added LNA was adsorbed by cultured cells after incubation.
After incubation for 6 hr, the medium was separated. Malonyldialdehyde (MDA) in the medium was assessed by a slight modification of the Uchiyama and Mihara method (Anal Biochem 1978; 86: 271-278). Briefly, to 0.1 ml of the medium in a 12 ml glass tube, 3 ml of 1% […] and 1 ml of 0.67% thiobarbituric acid were added and heated at 100° C. for 45 min. After cooling in ice water, 4 ml of n-butanol was added and the resulting mixture was shaken and then centrifuged to separate the butanol layer. The fluorescence intensity in the butanol layer was assayed at the excitation and emission wavelengths of 515 and 553 nm, respectively. The auto-oxidation products of fatty acid in the medium were within 0.3 nmol and were used as blank. […]

normal hepatocytes = test: Metal-induced lipid peroxidation (MDA) in normal cultured hepatocytes; format: cell-based, Wistar rats; conditions: for IC50: Rattus norvegicus, Hepatocyte, normal hepatocytes, 100 μM, read-out: IC50 of lipid peroxidation inhibition
Excerpt: as §1
After incubation for 6 hr, the medium was separated. Malonyldialdehyde (MDA) in the medium was assessed by a slight modification of the Uchiyama and Mihara method (Anal Biochem 1978; 86: 271-278). Briefly, to 0.1 ml of the medium in a 12 ml glass tube, 3 ml of 1% […] and 1 ml of 0.67% thiobarbituric acid were added and heated at 100° C. for 45 min. After cooling in ice water, 4 ml of n-butanol was added and the resulting mixture was shaken and then centrifuged to separate the butanol layer. The fluorescence intensity in the butanol layer was assayed at the excitation and emission wavelengths of 515 and 553 nm, respectively. The auto-oxidation products of fatty acid in the medium were within 0.3 nmol and were used as blank. Dimethyl sulfoxide (20 μl) was diluted in 2000 μl of the culture medium, including control cultures of metal ions only in the absence of the test compounds and the final concentration of 1% dimethyl sulfoxide had no measurable effect on lipid peroxidation in basal cultured hepatocytes.

lysosomal fractions [1] = test: Oxidative damage tests of lysosomes: enzyme release with AAPH or AMVN radical generators; format: biochemical, Wistar rats; conditions: 10^−4M, ± SE
Method: (§2) Preparation of lysosomal fractions: After homogenizing in 9 volumes of 0.3 M sucrose, the liver was centrifuged at 450×g for 10 min. The supernatants were again centrifuged at 3500×g for 10 min, and the lysosome-containing supernatant was centrifuged at 10000×g for 10 min. The pellets were washed and centrifuged at 10000×g for 10 min, and resuspended in the sucrose buffer to a protein concentration of 15 mg/ml.
Oxidative damage tests of lysosomes: Assays for the release of acid phosphatase and β-N-acetylglucosaminidase from lysosomes were carried out by incubating lysosomal suspensions in the presence of test compounds. […] For this experiment, lysosomal suspensions were preincubated in the presence of 1 mM of the test compounds for 30 min and centrifuged at 12000×g for 10 min. Then the pellets were washed in 0.15 M KCl-5 mM Tris buffer (pH 7.4), centrifuged and re-suspended in 0.1M acetate buffer (pH 5.5).

lysosomal fractions [2] = test: Lysosome fragility test: LDH leakage and β-galactosidase release with metal ions; format: biochemical, Wistar rats; conditions: YHK at the higher concentration, p<0.05
Method: as §2
Lysosome fragility test: The fraction was incubated with the test compound and each of metal ions and β-galactosidase activity was measured in accordance with the method of Olsson et al. (Anal Cell Pathol 1990; 2: 179-188), using 4-methylumbelliferyl-β-galactosidase as a substrate. The results were expressed as percentage of total β-galactosidase released. Lactate dehydrogenase leakage was also measured in the culture medium in accordance with the method of Hillaire et al. (Hepatology 1995; 22: 82-87).

COc1cc(C2Oc3cc([C@H]4Oc5cc(O)cc(O)c5C(=O)[C@@H]4O)ccc3OC2CO)ccc1O (stereo partly drawn) [Sylibin, sylibin]
IC50 (LNA-loaded hepatocytes; CuSO4-induced): 16.8 ± 1.5 µM
IC50 (LNA-loaded hepatocytes; FeSO4-induced): 79.9 ± 9.2 µM
IC50 (LNA-loaded hepatocytes; VCl3-induced): 17.3 ± 1.2 µM
IC50 (normal hepatocytes; CuSO4-induced): 7.3 ± 0.3 µM
IC50 (normal hepatocytes; FeSO4-induced): 18.9 ± 3.2 µM
IC50 (normal hepatocytes; VCl3-induced): 10.8 ± 1.2 µM
MDA generation in the medium (normal hepatocytes; metal catalysts, up to 6 hr, p<0.05): significantly decreased
Acid phosphatase release, enzyme activity (lysosomal fractions [1]; AAPH-induced release): 51.9 ± 5.6 % of control
β-N-acetylglucosaminidase release, enzyme activity (lysosomal fractions [1]; AAPH-induced release): 54.6 ± 4.7 % of control
Acid phosphatase release, enzyme activity (lysosomal fractions [1]; AMVN-induced release): 83.9 ± 10.4 % of control
β-N-acetylglucosaminidase release, enzyme activity (lysosomal fractions [1]; AMVN-induced release): 77.3 ± 7.4 % of control
β-galactosidase release from lysosomes (lysosomal fractions [2]): significantly decreased

Source: patent publication US20060105061A1, “Galenical composition” (priority 2004, published 2006)
